{
  "source": "PubChem BioAssay AID2060511",
  "about": "(Molecular Pharmacology Branch, DTP, NCI, 2025)",
  "test_system": "422866-222-R5-J1-PDC spheroids with HUVEC/MSC, viability",
  "test": "Anticancer human tumor 422866-222-R5-J1-PDC patient-derived pancreatic adenocarcinoma cell line growth inhibition [GQUAD]",
  "conditions": "for viability, T/C: stronger effect = lower value",
  "from_the_text": "DNA G-quadruplex Stabilizer Agents in Combinations in Complex Spheroids\nA high-throughput screen of multi-cell type tumor spheroids was designed to identify active combinations of DNA G-quadruplex stabilizer agents and targeted small molecules. Complex spheroids include a stromal component modeled by human endothelial cells (HUVEC) and fibroblasts modeled by human mesenchymal stem cells (MSCs). The concentration ranges selected for each drug and investigational agent were based upon clinically achievable concentrations if the clinical Cmax of the agent was known.\nCompounds. The drugs and investigational agents: pidnarulex (CX-5461; NSC782164), APTO-253 (NSC789042), BRACO-19 (NSC847499), peposertib (NSC802822), ceralasertib (NSC780249), elimusertib (NSC800525), camonsertib (NSC841442), AZD-1390 (NSC803789), olaparib (NSC753686), talazoparib (NSC767125), ART-558 (NSC835418), sotorasib (NSC818433), MRTX-1133 (NSC836407), SN-38 (NSC673596), topotecan (NSC609699), etoposide (NSC141540), doxorubicin (NSC123127), gemcitabine (NSC613327), 5-fluorouracil (NSC19893), paclitaxel (NSC125973), vemurafenib (NSC761431), panobinostat (NSC761190), R-306465 (JNJ-16241199; NSC773264), adavosertib (NSC754352), TP-3654 (NSC805149), carboplatin (NSC241240), KSQ-4279 (NSC840948), and staurosporine (NSC755774) were obtained from the National Cancer Institute (NCI) Developmental Therapeutics Program Chemical Repository (34). The FDA-approved anticancer drug set is available from the NCI Developmental Therapeutics Program. […] The stock solutions were prepared in dimethyl sulfoxide (DMSO, Sigma-Aldrich, St. Louis, MO, cat. D2650) at 800-fold the tested concentration and stored at -70 degrees C prior to their use. All drugs and investigational agents were tested over a range starting from a high concentration at or near the clinical Cmax and decreasing in half-log increments. If the clinical Cmax for an agent had not been determined, the highest concentration tested was 10 microM.\n2.3 Cell Culture. All cells were maintained in an incubator at 37 degrees C and 5% CO2 with 95% humidity. The PDC lines were cultured according to standard operating procedures established by the NCI PDMR. All PDCs were thawed and cultured in Matrigel-coated flasks prepared with a working solution of 1X Ham's F-12 nutrient mix, without supplementation (Invitrogen, cat. 11765054), 100 U/mL penicillin-streptomycin (Invitrogen, cat. 15140122), and 2.5% Matrigel (Corning Inc., cat. 354248) for the first three passages. The 857933-349-R-J2-PDC line was cultured in 6C/Colon 1B media, which includes advanced DMEM/F-12 (Thermo Fisher Scientific, cat. 12634028), 10 mM HEPES (Thermo Fisher Scientific, cat. 15630080), 1X GlutaMAX supplement (Thermo Fisher Scientific, cat. 35050061), 0.1 mg/mL primocin (InvivoGen, cat. ant-pm-2), 10% defined fetal bovine serum, heat inactivated (HyClone Laboratories Inc., cat. SH30070.03HI), 50% L-WRN conditioned media (ATCC, cat. CRL-3276), 1.25 mM N-Acetyl-L-cysteine (Sigma-Aldrich, cat. A9165), 10 mM nicotinamide (Sigma-Aldrich, cat. N0636), 1X B-27 supplement (Thermo Fisher Scientific, cat. 17504044), 1X N-2 supplement (Thermo Fisher Scientific, cat. 17502048), 10 microM Y-27632 dihydrochloride (Tocris Bioscience, cat. 1254), and 50 ng/mL human EGF recombinant protein (Thermo Fisher Scientific, cat. PHG0311). The 485176-168-R4-J1-PDC line was cultured in Panc media, which includes all 6C/Colon 1B media components plus 100 ng/mL human FGF-10 (Thermo Fisher Scientific, cat. 100-26), 500 nM SB-431542 (Selleckchem, cat. S1067), and gastrin (Tocris, cat. 3006).\n[…]",
  "note": "Several values for one entry are separate records, joined by “and”; a condition that tells them apart may be missing. Equal entries are not always repeated.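 Further: spheroids exposed to compounds for seven days before reading.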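 Wherever viability, T/C is given: percent viability relative to DMSO vehicle control taken as 100%.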",
  "data": [
    {"smiles": "CC(=O)O[C@H]1C(=O)[C@@]2(C)[C@H]([C@H](OC(=O)c3ccccc3)[C@]3(O)C[C@H](OC(=O)[C@H](O)[C@@H](NC(=O)c4ccccc4)c4ccccc4)C(C)=C1C3(C)C)[C@]1(OC(C)=O)CO[C@@H]1C[C@@H]2O", "values": [
      {"measurement": "viability, T/C", "setting": "compound 0.0316 µM", "value": "96% and 75.6% and 77.1%"},
      {"measurement": "viability, T/C", "setting": "compound 0.1 µM", "value": "89.9% and 64.8% and 64.4%"},
      {"measurement": "viability, T/C", "setting": "compound 0.316 µM", "value": "82.1% and 66.5% and 76.9%"},
      {"measurement": "viability, T/C", "setting": "compound 1 µM", "value": "47.7% and 68.6% and 75.5%"},
      {"measurement": "viability, T/C", "setting": "compound 3.16 µM", "value": "39.7% and 75% and 67.1%"},
      {"measurement": "IC50", "setting": "curve of compound", "value": "1460 nM and > 10000 nM"}
    ]},
    {"smiles": "O=C(NO)c1cnc(N2CCN(S(=O)(=O)c3ccc4ccccc4c3)CC2)nc1", "values": [
      {"measurement": "viability, T/C", "setting": "compound 0.0316 µM", "value": "69.6% and 96.6% and 94.7%"},
      {"measurement": "viability, T/C", "setting": "compound 0.1 µM", "value": "70.9% and 105% and 90%"},
      {"measurement": "viability, T/C", "setting": "compound 0.316 µM", "value": "69.7% and 92.5% and 88.2%"},
      {"measurement": "viability, T/C", "setting": "compound 1 µM", "value": "67% and 52.3% and 58.2%"},
      {"measurement": "viability, T/C", "setting": "compound 3.16 µM", "value": "74.3% and 29.5% and 37.5%"},
      {"measurement": "IC50", "setting": "curve of compound", "value": "> 10000 nM and 1340 nM and 1730 nM"}
    ]},
    {"smiles": "O=C(NO)c1cnc(N2CCN(S(=O)(=O)c3ccc4ccccc4c3)CC2)nc1", "note": "+ CN(C)c1ccc(Nc2c3ccc(NC(=O)CCN4CCCC4)cc3nc3cc(NC(=O)CCN4CCCC4)ccc23)cc1", "values": [
      {"measurement": "IC50", "setting": "curve of first compound, second compound 0.0316 µM", "value": 792, "unit": "nM"},
      {"measurement": "IC50", "setting": "curve of first compound, second compound 0.1 µM", "value": 944, "unit": "nM"},
      {"measurement": "IC50", "setting": "curve of first compound, second compound 0.316 µM", "value": 838, "unit": "nM"},
      {"measurement": "IC50", "setting": "curve of first compound, second compound 1 µM", "value": 856, "unit": "nM"},
      {"measurement": "IC50", "setting": "curve of first compound, second compound 3.16 µM", "value": 566, "unit": "nM"},
      {"measurement": "IC50", "setting": "curve of first compound, second compound 10 µM", "value": 1110, "unit": "nM"},
      {"measurement": "viability, T/C", "setting": "second compound 0.0316 µM, first compound 0.0316 µM", "value": 93.7, "unit": "%"},
      {"measurement": "viability, T/C", "setting": "second compound 0.0316 µM, first compound 0.1 µM", "value": 115, "unit": "%"},
      {"measurement": "viability, T/C", "setting": "second compound 0.0316 µM, first compound 0.316 µM", "value": 79.9, "unit": "%"},
      {"measurement": "viability, T/C", "setting": "second compound 0.0316 µM, first compound 1 µM", "value": 37.4, "unit": "%"},
      {"measurement": "viability, T/C", "setting": "second compound 0.0316 µM, first compound 3.16 µM", "value": 29.4, "unit": "%"},
      {"measurement": "viability, T/C", "setting": "second compound 0.0316 µM, first compound 10 µM", "value": 1.05, "unit": "%"},
      {"measurement": "viability, T/C", "setting": "second compound 0.1 µM, first compound 0.0316 µM", "value": 100, "unit": "%"},
      {"measurement": "viability, T/C", "setting": "second compound 0.1 µM, first compound 0.1 µM", "value": 101, "unit": "%"},
      {"measurement": "viability, T/C", "setting": "second compound 0.1 µM, first compound 0.316 µM", "value": 89.8, "unit": "%"},
      {"measurement": "viability, T/C", "setting": "second compound 0.1 µM, first compound 1 µM", "value": 38.5, "unit": "%"},
      {"measurement": "viability, T/C", "setting": "second compound 0.1 µM, first compound 3.16 µM", "value": 32.1, "unit": "%"},
      {"measurement": "viability, T/C", "setting": "second compound 0.1 µM, first compound 10 µM", "value": 1.23, "unit": "%"},
      {"measurement": "viability, T/C", "setting": "second compound 0.316 µM, first compound 0.0316 µM", "value": 98, "unit": "%"},
      {"measurement": "viability, T/C", "setting": "second compound 0.316 µM, first compound 0.1 µM", "value": 111, "unit": "%"},
      {"measurement": "viability, T/C", "setting": "second compound 0.316 µM, first compound 0.316 µM", "value": 67.4, "unit": "%"},
      {"measurement": "viability, T/C", "setting": "second compound 0.316 µM, first compound 1 µM", "value": 37.4, "unit": "%"},
      {"measurement": "viability, T/C", "setting": "second compound 0.316 µM, first compound 3.16 µM", "value": 37.1, "unit": "%"},
      {"measurement": "viability, T/C", "setting": "second compound 0.316 µM, first compound 10 µM", "value": 1.09, "unit": "%"},
      {"measurement": "viability, T/C", "setting": "second compound 1 µM, first compound 0.0316 µM", "value": 92.5, "unit": "%"},
      {"measurement": "viability, T/C", "setting": "second compound 1 µM, first compound 0.1 µM", "value": 92.9, "unit": "%"},
      {"measurement": "viability, T/C", "setting": "second compound 1 µM, first compound 0.316 µM", "value": 66.8, "unit": "%"},
      {"measurement": "viability, T/C", "setting": "second compound 1 µM, first compound 1 µM", "value": 38.1, "unit": "%"},
      {"measurement": "viability, T/C", "setting": "second compound 1 µM, first compound 3.16 µM", "value": 34, "unit": "%"},
      {"measurement": "viability, T/C", "setting": "second compound 1 µM, first compound 10 µM", "value": 1.34, "unit": "%"},
      {"measurement": "viability, T/C", "setting": "second compound 3.16 µM, first compound 0.0316 µM", "value": 87.6, "unit": "%"},
      {"measurement": "viability, T/C", "setting": "second compound 3.16 µM, first compound 0.1 µM", "value": 94.6, "unit": "%"},
      {"measurement": "viability, T/C", "setting": "second compound 3.16 µM, first compound 0.316 µM", "value": 54.5, "unit": "%"},
      {"measurement": "viability, T/C", "setting": "second compound 3.16 µM, first compound 1 µM", "value": 30.7, "unit": "%"},
      {"measurement": "viability, T/C", "setting": "second compound 3.16 µM, first compound 3.16 µM", "value": 36.1, "unit": "%"},
      {"measurement": "viability, T/C", "setting": "second compound 3.16 µM, first compound 10 µM", "value": 1.79, "unit": "%"},
      {"measurement": "viability, T/C", "setting": "second compound 10 µM, first compound 0.0316 µM", "value": 89.6, "unit": "%"},
      {"measurement": "viability, T/C", "setting": "second compound 10 µM, first compound 0.1 µM", "value": 88.2, "unit": "%"},
      {"measurement": "viability, T/C", "setting": "second compound 10 µM, first compound 0.316 µM", "value": 72.2, "unit": "%"},
      {"measurement": "viability, T/C", "setting": "second compound 10 µM, first compound 1 µM", "value": 38.4, "unit": "%"},
      {"measurement": "viability, T/C", "setting": "second compound 10 µM, first compound 3.16 µM", "value": 41.3, "unit": "%"},
      {"measurement": "viability, T/C", "setting": "second compound 10 µM, first compound 10 µM", "value": 1.96, "unit": "%"}
    ]},
    {"smiles": "Cc1cnc(CNC(=O)c2c(=O)c3ccc(N4CCCN(C)CC4)nc3n3c2sc2ccccc23)cn1", "values": [
      {"measurement": "viability, T/C", "setting": "compound 0.1 µM", "value": "96.7% [middle of 12 runs]"},
      {"measurement": "viability, T/C", "setting": "compound 0.316 µM", "value": "90.4% [middle of 12 runs]"},
      {"measurement": "viability, T/C", "setting": "compound 1 µM", "value": "85.3% [middle of 12 runs]"},
      {"measurement": "viability, T/C", "setting": "compound 3.16 µM", "value": "87.8% [middle of 12 runs]"},
      {"measurement": "viability, T/C", "setting": "compound 10 µM", "value": "81% [middle of 11 runs]"},
      {"measurement": "IC50", "setting": "compound alone, run of 04/16/2024", "value": "> 10000", "unit": "nM"}
    ]}
  ]
}
